We go through one molecule from ChEMBL document CHEMBL5137114, “Discovery of IHMT-MST1-58 as a Novel, Potent, and Selective MST1 Inhibitor for the Treatment of Type 1/2 Diabetes” (J Med Chem, 2022).

SMILES strings stand for the structures. Activity calls are given as the source filed them. No cut-off for these calls is given here.

The Kd is the constant that tells how readily two partners part at equilibrium. What is called inhibition is the drop in the measured response relative to a control, in per cent. The Cmax is the maximum level reached in the sampled fluid or tissue.

The target of data set [1] is T1, Serine/threonine-protein kinase 3 (Homo sapiens, UniProt Q13188).
T1 sequence (Q13188 whole entry): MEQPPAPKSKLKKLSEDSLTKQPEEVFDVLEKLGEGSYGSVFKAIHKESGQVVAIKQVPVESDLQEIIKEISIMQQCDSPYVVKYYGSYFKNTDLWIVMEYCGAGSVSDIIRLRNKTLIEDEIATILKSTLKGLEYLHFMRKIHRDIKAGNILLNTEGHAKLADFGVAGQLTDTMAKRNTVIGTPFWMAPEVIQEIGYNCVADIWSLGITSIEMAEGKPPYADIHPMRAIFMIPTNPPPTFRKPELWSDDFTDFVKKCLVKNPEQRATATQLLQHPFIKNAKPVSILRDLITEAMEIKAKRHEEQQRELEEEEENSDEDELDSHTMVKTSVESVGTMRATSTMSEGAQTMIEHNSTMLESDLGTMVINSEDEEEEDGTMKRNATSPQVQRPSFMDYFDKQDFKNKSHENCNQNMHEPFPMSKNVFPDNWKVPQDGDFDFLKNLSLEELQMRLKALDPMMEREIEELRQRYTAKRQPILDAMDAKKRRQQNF
Kind of data set: Binding affinity to wild-type human partial length MST2 (D17 to E318 residues) expressed in bacterial expression system by Kinomescan method.

Data set [2] deals with INS1. Kind of data set: Cytotoxicity against rat INS1 cells at 10 uM incubated for 72 hrs by Cell Titer-Glo assay. The note with it: ins1, 72 h. It is filed as toxicity, cell-based.
Data set [3] concerns Mus musculus. Kind of data set: Antidiabetic activity against 12 hrs fasted high fat diet-STZ-induced C57BL/6J mouse model of type 2 diabetes assessed as decrease in fasting blood glucose level at 50 mg/kg, po qd administered measured immediately in presence of metformin (reference value: 20.3 mmol/L). In kind it is functional.
The subject of data set [4] is Mus musculus. Kind of data set: Antidiabetic activity against multi low dose STZ-induced C57BL/6J mouse model of type 1 diabetes assessed as increase in water consumption at 50 mg/kg, po administered upto 79 days in presence of metformin. The note with it: time <= 79.0 day. It is filed as functional, organism-based.
Data set [5] deals with RIN-m5F. Kind of data set: Protection against TNF-alpha-induced cell damage in rat RIN-m5F cells assessed as increase in cell survival at 0.03 to 0.3 uM incubated for 48 hrs by Cell Titer-Glo assay. It is filed as functional, cell-based. The note with it: dose 0.03-0.3 µM. (ATP-based viability assays read luminescence as a measure of living cells.)
Data set [6] has as its system Serine/threonine-protein kinase 4 (Rattus norvegicus). Kind of data set: Inhibition of INF-gamma-stimulated MST1 phosphorylation in rat RIN-m5F cells incubated for 12 hrs by Western blotting analysis. The following applies: dose 0.1-10 µM, DDE = dose-dependent effect. For orientation: In western blotting, separated proteins are transferred to a membrane and probed.
Data set [7] deals with RAW264.7. Kind of data set: Inhibition of MST1 in mouse RAW264.7 cells assessed as reduction in H2O2-stimulated MST1/MST2 autophosphorylation at T183/T180 residues preincubated for 2 hrs followed by H2O2 addition for 30 mins by Western blotting analysis. In kind it is cell-based. The following applies: dose 0.1-10 µM, time 2.5 hrs, DDE = dose-dependent effect.
For data set [8], the system named is Serine/threonine-protein kinase 4 (Rattus norvegicus). Kind of data set: Inhibition of INF-gamma-stimulated MST1 in rat INS1 cells assessed as reduction in MOB1 autophosphorylation incubated for 12 hrs by Western blotting analysis. The following applies: dose 0.1-10 µM, DDE = dose-dependent effect.
Data set [9] has as its target T2, Serine/threonine-protein kinase Nek3 (Homo sapiens) (UniProt P51956).
T2 sequence (whole entry): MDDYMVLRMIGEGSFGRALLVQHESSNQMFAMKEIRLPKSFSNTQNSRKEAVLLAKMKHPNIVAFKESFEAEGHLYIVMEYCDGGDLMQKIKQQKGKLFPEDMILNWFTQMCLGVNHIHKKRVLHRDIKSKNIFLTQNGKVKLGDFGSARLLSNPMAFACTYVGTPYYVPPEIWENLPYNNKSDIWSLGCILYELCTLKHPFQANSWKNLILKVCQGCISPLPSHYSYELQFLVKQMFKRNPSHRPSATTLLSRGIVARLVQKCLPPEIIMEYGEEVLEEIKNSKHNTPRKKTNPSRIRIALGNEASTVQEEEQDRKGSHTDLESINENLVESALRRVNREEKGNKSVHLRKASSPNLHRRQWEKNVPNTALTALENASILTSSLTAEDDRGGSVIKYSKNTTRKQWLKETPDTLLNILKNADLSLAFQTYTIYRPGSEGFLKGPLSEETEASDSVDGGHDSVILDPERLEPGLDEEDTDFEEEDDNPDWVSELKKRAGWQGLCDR
Kind of data set: Inhibition of recombinant full length N-terminal GST -tagged human NEK3 expressed in baculovirus expression system using S2 as substrate incubated for 2 hrs by HTRF assay relative to control. The following applies: Sf9, concentration not given here.

Data set [10] deals with INS1. Kind of data set: Protection against IFN-gamma-induced cell damage in rat INS1 cells assessed as increase in cell survival at 0.03 to 0.3 uM incubated for 48 hrs by Cell Titer-Glo assay. It is filed as functional, cell-based. The following applies: dose 0.03-0.3 µM.
Data set [11] has as its system Serine/threonine-protein kinase 4 (Rattus norvegicus). Kind of data set: Inhibition of IL-1beta-stimulated MST1 phosphorylation in rat INS1 cells incubated for 12 hrs by Western blotting analysis. The note with it: dose 0.1-10 µM, DDE = dose-dependent effect.
The nature of data set [12]: Cmax in Sprague-Dawley rat at 10 mg/kg, po measured up to 24 hrs by LC-MS/MS analysis. The note with it: in vivo. In kind it is ADME, organism-based. The arrangement: dose 10 mg/kg, time < 24 hrs, route po.
Data set [13] is described as follows: Toxicity in multi low dose STZ-induced C57BL/6J mouse model of type 1 diabetes assessed as effect on pancreas morphology at 50 mg/kg, po qd in presence of metformin by H and E staining based analysis. The following applies: in vivo. In kind it is organism-based.
Data set [14] deals with INS1. Kind of data set: Protection against IL-1beta-induced cell damage in rat INS1 cells assessed as increase in cell survival at 0.03 to 0.3 uM incubated for 48 hrs by Cell Titer-Glo assay. The following applies: dose 0.03-0.3 µM. In kind it is functional, cell-based.
Data set [15] in a line: Oral bioavailability in Beagle dog at 10 mg/kg measured up to 24 hrs by LC-MS/MS analysis. In kind it is ADME, organism-based, Canis lupus familiaris. The note with it: in vivo.
A short description of data set [16]: Toxicity in high multi low dose STZ-induced C57BL/6J mouse model of Type 1 diabetes assessed as effect on body weight at 50 mg/kg, po qd in presence of metformin. In kind it is organism-based. The note with it: in vivo.
The test system of data set [17] is Serine/threonine-protein kinase 4 (Rattus norvegicus). Kind of data set: Inhibition of IL-1beta-stimulated MST1 in rat INS1 cells assessed as reduction in MOB1 autophosphorylation incubated for 12 hrs by Western blotting analysis. The note with it: dose 0.1-10 µM, DDE = dose-dependent effect.
In data set [18] the test system is Mus musculus. Kind of data set: Antidiabetic activity against multi low dose STZ-induced C57BL/6J mouse model of type 1 diabetes assessed as food intake at 50 mg/kg, po administered for 1 to 2 days (reference value: 4.5 g/day). The note with it: time 1-2 day. It is filed as functional.
Data set [19] concerns Mus musculus. Kind of data set: Antidiabetic activity against high fat diet-STZ-induced C57BL/6J mouse model of type 2 diabetes assessed as improvement in water consumption at 50 mg/kg, po qd administered upto 106 days in presence of metformin. The following applies: time <= 106.0 day. In kind it is functional, organism-based.
A short description of data set [20]: Cmax in mouse Pancreas at 50 mg/kg, po measured up to 24 hrs by LC-MS/MS analysis. In kind it is ADME, organism-based. The arrangement: dose 50 mg/kg, time < 24 hrs, route po.
In data set [21] the test system is Mus musculus. Kind of data set: Antidiabetic activity in high fat diet-STZ-induced C57BL/6J mouse model of type 2 diabetes assessed as reduction in HbA1c level at 250 mg/kg, po qd administered in presence of metformin (reference value: 8.6 %). It is filed as functional. The arrangement: scale not given: the % may be the effect or the level left.

Take `Cc1ccccc1C1C(=O)N(C)c2cnc(Nc3ccc(S(N)(=O)=O)cc3)nc2N1C` (stereo unspecified): in data set [1], the Kd amounted to 2700 nM. In addition, the Activity result is on record as “Non-Toxic” in [2]; 20.3 mmol/L in [3]; “Non-Toxic” in data set [13]; “Non-Toxic” in data set [16]; 4.5 g/day in data set [18]; 5.9% in data set [21]. Besides, the result in [4], in data set [5], in data set [10], in data set [14] and in data set [19] was Active. For the same molecule, the inhibition entry in data set [6] was “Dde”; in data set [7], “Dde”; in data set [8] it was “Dde”; in [9] it was 0.85%; in data set [11] it was “Dde”; in data set [17] it was “Dde”. In addition, the peak concentration (Cmax) in data set [12] is 1720 ng/mL; in data set [20], 12200 ng/mL. Moreover, in [15], the bioavailability was determined as 106%.
